The target of data set [1] is RgSBP (RUMGNA_02698); solute-binding protein of the sialic acid ABC transporter, full-length excluding the signal sequence (residues 1-29), N-terminal His-tag …. In words: Isothermal titration calorimetry (ITC) of 2,7-anhydro-Neu5Ac binding to RgSBP (FIG. 4A). More on the design: species or system Ruminococcus gnavus ATCC 29149. To be noted: 50 mM Tris-HCl pH 7.5, cell protein 100 μM, syringe ligand 2 mM, single-binding site model. The text has this:
The Nan cluster in R. gnavus ATCC 29149 is predicted to encode a putative sialic acid transporter of the SAT2 family, with RUMGNA_02698 predicted to be a solute binding protein (SBP) and RUMGNA_02697 and 02696 predicted to be two permeases (Crost et al., 2013; 2016). To determine the ligand specificity of R. gnavus SBP protein (RgSBP), the corresponding gene was amplified by PCR from the R. gnavus ATCC 29149 genome, cloned and heterologously expressed in E. coli and the His6-tag recombinant protein purified by immobilised metal ion affinity chromatography (IMAC).
The affinity of the interaction between RgSBP and sialic acid ligands was further assessed by ITC.
The full-length RgSBP excluding the signal sequence (residues 1-29), the full length RgNanA and full length RUMGNA_02695 were amplified from R. gnavus ATCC 29149 gDNA, and cloned into the pHISTEV expression system, introducing a His-tag at the N terminus using primers listed in Table S1. DNA manipulation was carried out in E. coli DH5α cells. […] Protein purification was assessed by standard SDS-polyacrylamide gel electrophoresis using NuPAGE Novex 4-12% Bis-Tris gels (Life Technologies, Paisley, UK). Protein concentration was measured with NanoDrop 1000 UV-Vis
Spectrophotometer (Thermo Fischer Scientific, Wilmington, Del.) and using the extinction coefficient calculated by Protparam (ExPASy-Artimo, 2012) from the peptide sequence. […]
On the technique in general: In ITC the heat of successive injections is recorded.

Data set [2] has as its system R. gnavus ATCC 29149 nan deletion mutants. Put plainly: Growth on sole carbon source, nan deletion mutants. Type of data set: cell-based. To be noted: 11.1 mM in YCFA, anaerobic. The text has this:
R. gnavus mutants were generated using the ClosTron methodology (Heap et al., 2010), which inserts an erythromycin resistance cassette into the gene of interest. Target sites were identified using the Pertuka method (Perutka et al., 2004). The re-targeted introns were synthesised and ligated into the pMTL007C-E2 vector by ATUM (MenloPark, USA). The plasmids were then transformed into E. coli CA434 using the heat-shock protocol, and the recombinant clones selected for chloramphenicol resistance. Recombinant E. coli cells were grown overnight in 10 ml LB, 1 ml of the overnight culture was pelleted and washed with PBS. The E. coli cell pellet was resuspended in 200 μl of an R. gnavus overnight culture and the cell suspension spotted onto a non-selective BHI-YH plate. […]
(§1) The ability of the mutants to utilise sialic acids and sialoconjugates was assessed by supplementing YCFA with 11.1 mM of 2,7-anhydro-Neu5Ac, 3'SL, glucose or Neu5Ac in triplicate 200 μl cultures in 96-well microtiter plates. The OD595 nm was measured hourly for 10 h in an infinite F50 plate reader (Tecan, UK) housed within an anaerobic cabinet connected to Magellan V7.0 software.

Data set [3] has as its system R. gnavus ATCC 29149 wild-type. In words: Growth on sole carbon source, wild-type strain. To be noted: 11.1 mM in YCFA, anaerobic. In kind it is cell-based. The procedure:
R. gnavus ATCC 29149 was routinely grown in an anaerobic cabinet (Don Whitley, Shipley, UK) in BHI-YH as previously described (Crost et al., 2013). Growth on single carbon sources utilized anaerobic basal YCFA medium (Duncan et al., 2002) supplemented with 11.1 mM of specific mono- or oligosaccharides (2,7-anhydro-Neu5Ac, 3'Sialyllactose (3'SL) or glucose). The bacteria were grown to late exponential phase for RNA extraction, the culture was performed in 14 ml tubes. Growth was determined spectrophotometrically by monitoring changes in optical density at […] compared to the same medium without bacterium (ΔOD595 nm) hourly for 10 hours.
as §1

Data set [4] deals with CC(=O)N[C@H]1[C@H]([C@H](O)[C@H](O)CO)OC(O)(C(=O)O)C[C@@H]1O. Put plainly: purified protein, by the assay type. The note with it: other: substrate of RgNanA; Michaelis-Menten fit; pH 7.0.
Description: Aldolase cleavage was measured by monitoring the decrease in absorbance at 340 nm (A340 nm) as NADH is converted to NAD by lactate dehydrogenase in a coupled reaction where pyruvate is released from sialic acid by the aldolase. Reactions were performed in a 100 μl volume with final concentrations of 150 μM NADH (Sigma, St Louis, USA), 0.5 U LDH (Sigma, St Louis, USA), 10 mM sialic acid (Neu5Ac or 2,7-anhydro-Neu5Ac) and 1.5 μg purified RgNanA or EcNanA (E. coli aldolase CAS: 9027-60-5, Carbosynth, UK) in 50 mM Na-phosphate buffer (pH 7.0). The reactions were performed at 37° C. and monitored using FLUOstar OPTIMA (BMG LABTECH). For kinetics experiments, the sialic acid concentration was varied at 20, 10, 5, 4, 2, 1, 0.4, 0.2, 0.1 mM and the initial rate of reaction determined for each concentration in triplicate before analysis was performed by fitting the data to a Michaelis-Menten using Graph Pad Prism (V 5.03).
The substrate specificity of RgNanA was determined using a coupled activity assay where pyruvate released during the conversion of sialic acid to ManNAc is converted to lactate by a lactate dehydrogenase and the subsequent loss of absorbance at 340 nm measured as NADH is converted to NAD^+. A commercially available E. coli sialic acid aldolase (EcNanA) was included as a control and enzymes were tested for activity against 2,7-anhydro-Neu5Ac and Neu5Ac. […] The kinetic parameters of RgNanA were determined by calculating the initial rate of reaction with increasing Neu5Ac concentrations. A Michaelis-Menten curve was fitted to the data and kinetic parameters determined (FIG. 7b).

Broadly, the Kd is the concentration at which binding is half-saturated. A lower Kd goes with a tighter complex. On to `CC(=O)NC1C(O)CC2(C(=O)O)OC(C(O)CO)C1O2` (centres unmarked) [2,7-anhydro-Neu5Ac], for which binding in data set [1] was characterised by a dissociation constant (Kd) of 2240 nM.
Turning to `CC(=O)N[C@H]1[C@H]([C@H](O)[C@H](O)CO)O[C@@](O[C@H]2[C@@H](O)[C@@H](CO)O[C@@H](O[C@H]3[C@H](O)[C@@H](O)C(O)O[C@@H]3CO)[C@@H]2O)(C(=O)O)C[C@@H]1O` (some centres unmarked) [3'SL, 3'-sialyllactose], the “growth on substrate as sole carbon source” value in data set [2] is “no growth was detected”. In data set [3], the “utilisation as a sole carbon source (growth)” value was “able to utilise”.
The Km is the substrate concentration at which the rate is half of its maximum. Usually kcat stands for the maximal rate divided by the concentration of active sites. “RgNanA (RUMGNA_02692, sialic acid aldolase) (Mediterraneibacter gnavus ATCC 29149)”: in data set [4], the Km was found to be 1473 ± 98 µM and the kcat turned out to be 2.757 ± 0.033 s⁻¹.

Values taken from patent US20210254138A1, “SIALIC ACID TRANSPORTER PROTEINS AS BIOMARKERS AND DRUG TARGETS” (Quadram Institute Bioscience, priority 2018, published 2021).
